Results as given in US10683553B2, “Method for determining sensitivity to simultaneous inhibitor against PARP and Tankyrase” (THE ASAN FOUNDATION, priority 2015, dated 2020).

How the values were obtained:
Format in all cases: cell-based
[1] = tested on: HCT116 human colon cancer cell line; assay: Trypan blue apoptosis after siRNA knockdown of DNA repair genes; conditions: HCT116 p53 normal, LIG4 siRNA knockdown; 25 μM and 50 μM, 48 hours
Excerpt: In order to analyze the degree of apoptosis of Compound A, which is a novel PARP/Tankyrase simultaneous inhibitor, depending on the presence or absence of the p53 gene and the presence or absence of the DNA repair gene, the present inventors reduced gene expression by an ATR, XLF, XRCC4 and LIG4 siRNA knockdown method known as a DNA repair gene in the human colon cancer cell line HCT116 in which the p53 normal gene is present, and then treated with Compound A, which is a novel PARP/Tankyrase simultaneous inhibitor. Then, the number of cells was measured by trypan blue staining assay to confirm the degree of apoptosis. As the experimental conditions and methods, the HCT116 p53 null human colon cancer cell line in which the p53 gene is normal and the HCT116 and p53 gene are deficient is cultured in RPMI1640 (10% FBS, 1% penicillin/streptomycin), and 1×10^5 per well was cultured at 37° C. for 24 hours in a 60 mm plate. ATR, XLF, XRCC4 and LIG4 (SEQ ID NO: 4; ATR siRNA 5′-GAGUUCUCAGAAGUCAACC-3′, SEQ ID NO: 5; XLF siRNA 5′-[…]-3′, SEQ ID NO: 6; XRCC4 siRNA 5′-[…]-3′, SEQ ID NO: 7; LIG4 siRNA 5′-GGGAGUGUCUCAUGUAAUA-3′) were infused into cells by means of Lipofectamin 2000 (Invitrogen), and knocked down at 37° C. for 48 hours. […] After 48 hours of culturing, the number of cells was measured by trypan blue staining and the degree of apoptosis was confirmed.

[2] = tested on: HCT116 human colon cancer cell line; assay: DNA damage by r-H2AX immunocytochemistry; conditions: HCT116 (p53 normal type); 50 μM, 48 hours
Excerpt: In order to analyze the degree of DNA damage of Compound A, which is a novel PARP/Tankyrase simultaneous inhibitor when the p53 gene is a normal type, the present inventors treated a novel PARP/Tankyrase simultaneous inhibitor, Compound A, and the competitive drug PARP inhibitor, olaparib, in the HCT116 human colon cancer cell line in which the p53 gene is a normal type, and then the DNA damage was confirmed by immunochemical method as the expression level of r-H2AX. The conditions and methods of the experiment were as follows: HCT116 human colon cancer cell line in which the p53 gene is a normal type was cultured in RPMI1640 (10% FBS, 1% penicillin/streptomycin) and cultured in a 60 mm plate at 1×10^5 per well for 24 hours at 37° C. Compound A, which is a novel PARP/Tankyrase simultaneous inhibitor, and olaparib, which is a competitive drug PARP inhibitor, were treated with 50 μM each and were cultured for 48 hours. […] The r-H2AX antibody was diluted at a ratio of 1:100 in 1% BSA, reacted overnight at 4° C., washed three times for 10 minutes with TBS-T buffer, and the secondary antibody (alexa Fluor®488 fitc) was diluted at a ratio of 1:100 in 1% BSA, reacted at room temperature for 2 hours, and then washed with TBS-T A buffer three times for 10 minutes, and stained with DAPI (4′,6-diamidino-2-phenylindole) to confirm the expression level of r-H2AX under a fluorescence microscope.

[3] = tested on: HCT116 human colon cancer cell line; assay: Western blot of r-H2AX and cleaved caspase 3; conditions: 50 μM, 48 hours
Excerpt: (§1) In order to analyze the degree of DNA damage and the degree of apoptosis of Compound A, which is a novel PARP/Tankyrase simultaneous inhibitor, when the p53 gene is a normal type and the LIG4 gene is a mutant type, the present inventors treated a novel PARP/Tankyrase simultaneous inhibitor, Compound A, and the competitive drug PARP inhibitor; olaparib, in the HCT116 human colon cancer cell line in which the p53 gene and an LIG4 gene are normal types and in the RKO human colon cancer cell line in which the p53 gene is a normal type and an LIG4 gene is a mutant type, and then confirmed the DNA damage with the expression level of r-H2Ax by western blotting method and confirmed the degree of apoptosis with the expression level of cleaved caspase 3. The conditions and method of the experiment were as follows: The HCT116 human colon cancer cell line in which the p53 gene and an LIG4 gene are normal types and the RKO human colon cancer cell line in which the p53 gene is a normal type and an LIG4 gene is a mutant type were cultured in RPMI1640 (10% FBS, 1% penicillin/streptomycin) and cultured in a 60 mm plate at 1×10^5 per well for 24 hours at 37° C. Compound A, which is a novel PARP/Tankyrase simultaneous inhibitor, and olaparib, which is a competitive drug PARP inhibitor, were treated with 50 μM each and were cultured for 48 hours. Then, the cells were obtained using a centrifuge. Each cell thus obtained was dissolved using an RIPA buffer, and the proteins were extracted using a high-speed centrifuge. 30 μg protein per cell was electrophoresed by western blot method to separate proteins and transferred to PDVF membrane. The r-H2AX, truncated caspase 3, and b-actin antibody were diluted with each 1:2000 in 5% skim milk. Then, the cells were reacted at 4° C. for 12 hours and then washed three times for 15 minutes with TBS-T buffer. The secondary antibody was diluted with each 1:2000 ratio in 5% skim milk and reacted at room temperature for 2 hours. It was washed with TBS-T buffer three times for 15 minutes to induce luminescence of PDVF membrane using ECL (Enhanced Chemiluminescence) buffer solution to develop protein expression on each anti-body using an X-ray film.

[4] = tested on: RKO human colon cancer cell line; assay: Western blot of r-H2AX and cleaved caspase 3; conditions: 50 μM, 48 hours
Excerpt: as §1

[5] = tested on: LoVo human colon cancer cell line; assay: Western blot of r-H2AX and cleaved caspase 3 with overexpressed mutant p53 or normal LIG4
Excerpt: In order to analyze the degree of DNA damage and the degree of apoptosis of Compound B, which is a novel PARP/Tankyrase simultaneous inhibitor, according to the expression of a mutant type p53 and a normal type LIG4 when the p53 genotype is a normal type and an LIG4 genotype is a mutant type, the present inventors cultured and treated the LoVo human colon cancer cell line in which the p53 genotype is a normal type and an LIG4 genotype is a mutant type under the same condition as in Example 17.

[6] = LoVo overexpressing LIG4 normal type gene vs control group (empty)
[7] = LoVo overexpressing p53 mutant type gene vs control group (empty)

Row | SMILES | degree of apoptosis (trypan blue cell count) [1] | DNA damage: expression level of r-H2AX (immunocytochemistry) [2] | expression amount of truncated caspase 3 (western blot) [3] | expression of r-H2AX (western blot) [3] | expression amount of truncated caspase 3 (western blot) [4] | expression of r-H2AX (western blot) [4] | expression amount of cleaved caspase 3 (western blot) [5, 6] | expression of r-H2AX (western blot) [5, 6] | expression amount of cleaved caspase 3 (western blot) [5, 7] | expression of r-H2AX (western blot) [5, 7]
1 | CCOc1cc(CN(C)C)cc2[nH]c(=O)c3c(c12)NCCC3 [Compound A, 8-[(dimethylamino)methyl]-10-ethoxy-1,2,3,4-tetrahydrobenzo[h][1,6]naphthyridin-5(6H)-one] | apoptosis is significantly increased | higher expression of r-H2AX than the group treated with olaparib | increased expression amount of the truncated caspase 3 | increased expression of r-H2AX than the group treated with olaparib | increased expression amount of the truncated caspase 3 | increased expression of r-H2AX than the group treated with olaparib | – | – | – | –
2 | N#Cc1ccc(N2CCN(Cc3ccc4c5c(c(=O)[nH]c4c3)CCCN5)CC2)nc1 [Compound B, 6-{4-[(5-oxo-1,2,3,4,5,6-hexahydrobenzo[h][1,6]naphthyridin-8-yl)methyl]piperazin-1-yl}nicotinonitrile] | – | – | – | – | – | – | reduced | reduced | reduced | reduced
